# Data: patent US20070010582A1, “Use of N-chlorotaurine for treatment of oozing tissue deficiencies” (priority 2005, published 2007)
# Legend:
# [1] = Storage stability of aqueous NCT solution; type: physicochemical; conditions: 1% (55 mM) aqueous solution stored at 2-4° C.
# Procedure: Pure NCT as a crystalline sodium salt was dissolved in sterile distilled water to a concentration of 1% (55 mM). Purity was verified by iodometric titration and spectrophotometry. […] Solutions were stored at 2-4° C., where they are stable for 1 year, and allowed to reach room temperature before application to the patients.
# [2] = Pilot study (open phase IIa) after tympanoplasty: tolerability; type: in vivo, human; conditions: 12 patients
# Procedure: (§1) After removing the ear-tamponade, which remained in place for 2 to 3 weeks postoperatively, 3 ml of the 1% aqueous NCT solution was applied once daily to the outer ear canal. The endpoint of the treatment was defined as a completely dry canal, corresponding to a clinical score of zero (see below for scoring).
# The second criterion was subjective pain, ascertained by a visual analogue scale.
# Before and at the end of the study an audiogram was performed in all patients.
# All subjects completed the study.
# [3] = pH of aqueous NCT solution; type: physicochemical; conditions: no buffers
# outer ear canal = assay: Pilot study (open phase IIa), postoperative irrigation of external auditory canal after tympanoplasty: efficacy; type: in vivo, human; conditions: 12 patients
# Procedure: Local irrigations of the external auditory canal with 3 ml of 1% N-chlorotaurine solution were performed once daily until the canal was dry.
# An open phase IIa study was performed in 12 patients after tympanoplasty. They received a single-shot antibiotic therapy with 2 g Spizef (cefotiam) i.v. perioperatively.
# as §1
# The primary criterion for the judgement of the status of the external meatus was a six-scale clinical score (0-5) based on visual observation via ear microscopy (zero=dry outer ear canal; 5=moist outer ear canal with inflammation).
# Clinical examination of the outer ear canal was performed daily for detection of moisture, signs of infection, and judgement of epithelisation of the neo-tympanon.
# A completely dry external meatus (score zero) was considered as the endpoint criterion for the termination of the study.
# Moisture and inflammation of the external auditory canal during and after irrigation with NCT were compared to those before treatment using the Wilcoxon test. P-values <0.05 were considered to indicate statistical significance. Due to the limited number of patients no corrections for multiple comparisons were applied.
# oozing ear channel = assay: Instillation/rinsing of the oozing ear channel with NCT solution after tympanoplasty (case reports); type: in vivo, human
# Source text: Rinsing the ear channel with NCT solution provokes in general a drying of the ear channel and the tympanoplastic within 1-2 days.
# A human patient with a traumatic perforation of the tympanic membrane was provided with a tympanoplasty. After removing incrustations and granulation tissue, the destroyed tympanic membrane was excised and substituted by a fascia temporalis. After taking away the tamponade, the microbiological culture of a swab from the reconstructed tympanic membrane and the ear channel was sterile. Subsequently, the oozing ear channel was treated one time daily for two days by instillation of 2 mL of aqueous 1% NCT solution. […] The complete epithelization was achieved 3 days earlier than by the conventional treatment with fuchsine.
# A human patient suffering from a perforation of the tympanic membrane caused by a chronic inflammation of the middle ear received tympanoplasty. After removing incrustations and granulation tissue, the destroyed tympanic membrane was excised and substituted by a fascia temporalis. After taking away the tamponade, the microbiological culture of a swab from the reconstructed tympanic membrane and the ear channel was sterile. Subsequently, the oozing and swollen ear channel was treated one time daily for five days by instillation of 2 mL of aqueous 1% NCT solution. […] The complete epithelization was achieved 3 days earlier than by the conventional treatment with fuchsine.
# [4] = system: open leg ulcer with fibrous coating; assay: Wound dressing soaked with NCT solution on open leg ulcer with fibrous coating (case report); type: in vivo, human; conditions: single patient
# Procedure: A human patient suffering from an open leg ulcer with fibrous coating caused by a burn accident was treated two times daily with wound dressing soaked with aqueous 1% NCT solution. […] Microbiological cultures of swabs before and after therapy were sterile.
# [5] = single patient after tympanoplasty, 2 mL aqueous 1% NCT solution one time daily
smiles,measurement,setting,value
"O=S(=O)(O)CCNCl [NCT, N-chlorotaurine]",stability of solutions on storage,[1],1 year
same,allergic reactions during the whole period of treatment,[2]; 3 ml 1% NCT once daily,no signs of allergic reactions
same,damage to the inner ear (audiogram before and after treatment),[2]; 3 ml 1% NCT once daily,no signs of damage to the inner ear
same,dizziness or nystagmus,[2]; 3 ml 1% NCT once daily,No dizziness or nystagmus occurred
same,subjective pain (visual analogue scale),[2]; 3 ml 1% NCT once daily,without occurrence of any pain
same,tolerability of therapy,[2]; 3 ml 1% NCT once daily to outer ear canal,tolerated very well
same,pH of aqueous solutions,[3],8
same,epithelisation of the new tympanon on ear microscopy,outer ear canal; 3 ml 1% NCT once daily,proceeded regularly without granulation
same,infection in the postoperative course,outer ear canal; 3 ml 1% NCT once daily,No infection occurred
same,necessary time for achieving a score of zero (range),outer ear canal; 3 ml 1% NCT once daily,2 to 5 days
same,time needed for complete epithelisation (mean±SD),outer ear canal; 3 ml 1% NCT once daily,22.6 ± 3.5 days
same,time needed for complete epithelisation (range),outer ear canal; 3 ml 1% NCT once daily,18 to 31 days
same,average clinical score (0-5),"outer ear canal; 3 ml 1% NCT once daily, days 2-5 vs day 1, Wilcoxon p=0,001-0,002",decreased daily
same,necessary time for achieving a score of zero (mean±SD),"outer ear canal; 3 ml 1% NCT once daily, score zero = dry outer ear canal",2.75 ± 0.87 days
same,drying of the outer ear canal,outer ear canal; 3 ml 1% aqueous NCT once daily,Rapid drying of the outer ear canal was detected in all patients
same,period of oozing subsequent to operations,"oozing ear channel; e.g. otoplastic operations, general statement",reduced the period of oozing
same,drying of the ear channel and the tympanoplastic,"oozing ear channel; rinsing the ear channel with NCT solution, general statement",1 to 2 days
same,time after which oozing ceased,"oozing ear channel; single patient after tympanoplasty, 2 mL aqueous 1% NCT solution instilled one time daily",three
same,time after which swelling ceased,"oozing ear channel; single patient after tympanoplasty, 2 mL aqueous 1% NCT solution instilled one time daily for five days",two
same,complete epithelization achieved earlier than by conventional treatment with fuchsine,oozing ear channel; [5],3 days
same,incorporation of the temporal fascia,oozing ear channel; [5],proceeded without problems
same,treatment time after which fibrous coating disappeared,"[4]; burn accident, dressing soaked with aqueous 1% NCT solution two times daily",three
same,microbiological cultures of swabs before and after therapy,[4]; aqueous 1% NCT solution two times daily,sterile
same,healing process,[4]; dressing soaked with aqueous 1% NCT solution two times daily,went on without problems
